# In US10385014B2, “Acyloxyalkyl carbamate prodrugs, methods of synthesis and use” (ARBOR PHARMACEUTICALS, LLC, priority 2003, dated 2019):
# Assays:
# [1] = Prodrug stability in rat plasma in vitro; type: in vitro ADME; details: 2.0 μM, 37° C.
# Procedure: (§1) The stabilities of prodrugs were evaluated in one or more in vitro systems using a variety of tissue preparations following methods known in the art. The chemical stability of prodrugs in aqueous buffers at pH's of 2.0, 7.4 and 8.0 were also measured. […] Each preparation was incubated with test compound at 37° C. for one hour. Aliquots (50 μL) were removed at 0, 30, and 60 min and quenched with 0.1% trifluoroacetic acid in acetonitrile. Samples were then centrifuged and analyzed by LC/MS/MS (see Example 86 below for method details).
# [2] = Caco-2 homogenate S9 stability; type: in vitro ADME; details: Caco-2 S9 (0.5 mg protein per mL), 5 μM, 37° C.
# Procedure: Caco-2 Homogenate S9 Stability: Caco-2 cells were grown for 21 days prior to harvesting. Culture medium was removed and cell monolayers were rinsed and scraped off into ice-cold 10 mM sodium phosphate/0.15 M potassium chloride, pH 7.4. Cells were lysed by sonication at 4° C. using a probe sonicator. Lysed cells were then transferred into 1.5 mL centrifuge vials and centrifuged at 9000 g for 20 min at 4° C. The resulting supernatant (Caco-2 cell homogenate S9 fraction) was aliquoted into 0.5 mL vials and stored at −80° C. until used.
# For stability studies, prodrug (5 μM) was incubated in Caco-2 homogenate S9 fraction (0.5 mg protein per mL) for 60 min at 37° C. Concentrations of intact prodrug and released baclofen were determined at zero time and 60 minutes using LC/MS/MS.
# [3] = Prodrug stability in rat liver S9; type: in vitro ADME; details: Rat Liver S9 (0.5 mg/mL), 2.0 μM, NADPH, 37° C.
# Procedure: as §1
# [4] = Chemical stability of prodrugs in aqueous buffers; type: physicochemical
# Procedure: as §1
# [5] = Prodrug stability in human plasma in vitro; type: in vitro ADME; details: 2.0 μM, 37° C.
# Procedure: as §1
# [6] = Prodrug stability in human liver S9; type: in vitro ADME; details: Human Liver S9 (0.5 mg/mL), 2.0 μM, NADPH, 37° C.
# Procedure: as §1
# pancreatin = assay: Pancreatin stability; type: in vitro ADME, porcine; details: 1% (w/v) pancreatin, 5 μM, pH 7.5, 37° C.
# Procedure: Pancreatin Stability: Stability studies were conducted by incubating prodrug (5 μM) with 1% (w/v) pancreatin (Sigma, P-1625, from porcine pancreas) in 0.025 M Tris buffer containing 0.5 M NaCl (pH 7.5) at 37° C. for 60 min. The reaction was stopped by addition of 2 volumes of methanol. After centrifugation at 14,000 rpm for […], the supernatant was removed and analyzed by LC/MS/MS.
SMILES,% of Prodrug Remaining after 60 min [1],% of Prodrug Remaining after 60 min [2],% of Prodrug Remaining after 60 min [3],"% of Baclofen Released after 60 min ([4]; aqueous buffer pH 2.0, 37° C.)","% of Baclofen Released after 60 min ([4]; aqueous buffer pH 7.4, 37° C.)","% of Baclofen Released after 60 min ([4]; aqueous buffer pH 8.0, 37° C.)","% of Prodrug Remaining after 60 min ([4]; aqueous buffer pH 8.0, 37° C.)",% of Baclofen Released after 60 min [5],% of Prodrug Remaining after 60 min [6],% of Prodrug Remaining after 60 min (pancreatin),% of Baclofen Released after 60 min [2]
"CC(C)C(=O)OC(OC(=O)NC[C@H](CC(=O)[O-])c1ccc(Cl)cc1)C(C)C.[Na+] (stereo partly drawn) [(25), Sodium 4-[(1-Isobutanoyloxyisobutoxy)carbonylamino]-(3R)-(4-chlorophenyl)-butanoate]",5%,2%,1%,0%,0%,0%,100%,4%,4%,,
"O=C([O-])C[C@@H](CNC(=O)OCOC(=O)CCc1ccccc1)c1ccc(Cl)cc1.[Na+] [(62), Sodium 4-[(3-Phenylpropionovloxymethoxy)carbonylamino]-(3R)-(4-chlorophenyl)-butanoate]",5%,1%,2%,0%,2%,8%,,2%,0%,1%,
"CCCC(=O)OC(OC(=O)NC[C@H](CC(=O)[O-])c1ccc(Cl)cc1)C1CCCCC1.[Na+] (stereo partly drawn) [(85), Sodium 4-[(1-Butanoyloxy-1-cyclohexylmethoxy)carbonylamino]-(3R)-(4-chlorophenyl)-butanoate]",82%,4%,2%,0%,0%,0%,,4%,2%,,82%
"CCCC(=O)O[C@H](CCC)OC(=O)NC[C@H](CC(=O)[O-])c1ccc(Cl)cc1.[Na+] [(86), Sodium 4-{[(1S)-Butanoyloxybutoxy]carbonylamino}-(3R)-(4-chlorophenyl)-butanoate]",1%,2%,2%,0%,1%,2%,,,2%,4%,
"CCCC(=O)O[C@H](OC(=O)NC[C@H](CC(=O)[O-])c1ccc(Cl)cc1)C(C)C.[Na+] [(90), Sodium 4-{[(1R)-Butanoyloxyisobutoxy]carbonylamino}-(3R)-(4-chlorophenyl)-butanoate]",5%,5%,3%,0%,0%,1%,93%,2%,1%,9%,
"CC(C)C(=O)O[C@H](OC(=O)NC[C@H](CC(=O)[O-])c1ccc(Cl)cc1)C(C)C.[Na+] [(100), Sodium 4-{[(1R)-Isobutanoyloxyisobutoxy]carbonylamino}-(3R)-(4-chlorophenyl)-butanoate]",9%,7%,3%,0%,0%,0%,,3%,1%,,
